According to ChEMBL document CHEMBL1151728 (J Med Chem, 2008):
Calls of active or inactive are those of the source. The rule behind the calls is not given here.

molecular target: Acetylcholinesterase (Electrophorus electricus, UniProt O42275); settings: not given
Sequence (O42275 whole entry): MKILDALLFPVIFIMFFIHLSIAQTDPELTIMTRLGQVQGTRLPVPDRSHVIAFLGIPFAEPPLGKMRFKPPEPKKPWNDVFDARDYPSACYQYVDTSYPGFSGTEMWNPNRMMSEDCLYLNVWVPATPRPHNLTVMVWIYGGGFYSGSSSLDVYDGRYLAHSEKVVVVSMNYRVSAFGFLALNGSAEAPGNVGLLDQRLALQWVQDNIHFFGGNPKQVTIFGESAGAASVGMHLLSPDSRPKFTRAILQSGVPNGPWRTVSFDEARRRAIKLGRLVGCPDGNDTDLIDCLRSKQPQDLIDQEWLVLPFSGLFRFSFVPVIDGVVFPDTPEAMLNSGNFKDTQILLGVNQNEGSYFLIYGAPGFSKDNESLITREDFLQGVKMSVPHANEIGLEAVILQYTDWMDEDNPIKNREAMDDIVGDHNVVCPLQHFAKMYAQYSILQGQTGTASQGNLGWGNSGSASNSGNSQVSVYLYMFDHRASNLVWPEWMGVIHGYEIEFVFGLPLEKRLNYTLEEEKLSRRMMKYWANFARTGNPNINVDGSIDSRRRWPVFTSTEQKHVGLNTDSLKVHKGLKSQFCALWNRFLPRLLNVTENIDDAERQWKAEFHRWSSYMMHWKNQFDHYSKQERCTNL

Row | SMILES | IC50 [nM]
1 | O=[N+]([O-])OCCNCCCCCCCCNc1c2c(nc3ccccc13)CCCC2 | 7.7
2 | O=[N+]([O-])OCCCNCCCCCCCCNc1c2c(nc3ccccc13)CCCC2 | 17.1
3 | O=[N+]([O-])OCCCNCCNc1c2c(nc3ccccc13)CCCC2 | 13
4 | O=C(CO[N+](=O)[O-])NCCCNc1c2c(nc3ccccc13)CCCC2 | 28.2
5 | O=[N+]([O-])OCCNCCCCCNc1c2c(nc3ccccc13)CCCC2 | 21.6
6 | O=[N+]([O-])OCCNCCNc1c2c(nc3ccccc13)CCCC2 | 9.1
7 | O=[N+]([O-])OCCCNCCCCCNc1c2c(nc3ccccc13)CCCC2 | 15.4
8 | CCCNCCCCNc1c2c(nc3ccccc13)CCCC2 | 23.4
9 | O=[N+]([O-])OCCCCCCNCCCCCCCCNc1c2c(nc3ccccc13)CCCC2 | 19.6
10 | O=[N+]([O-])OCCCNCCCCNc1c2c(nc3ccccc13)CCCC2 | 5.6

tested on: Rattus norvegicus; experiment: Effect on scopolamine-induced memory impairment in iv dosed Wistar rat assessed as decrease in time spent for exploration of the bait at the end of the eight-arm radial maze for 5 days; format: functional, organism-based; settings: not given

Row | SMILES | Activity
11 | O=C(CO[N+](=O)[O-])NCCCNc1c2c(nc3ccccc13)CCCC2 | Active
12 | O=[N+]([O-])OCCNCCNc1c2c(nc3ccccc13)CCCC2 | Active
13 | CCCNCCCCNc1c2c(nc3ccccc13)CCCC2 | inactive
14 | O=[N+]([O-])OCCCNCCCCNc1c2c(nc3ccccc13)CCCC2 | Active

tested on: Rattus norvegicus; experiment: Effect on scopolamine-induced memory impairment in iv dosed Wistar assessed as decrease in number of errors during exploration of the bait at the end of the eight-arm radial maze for 5 days; format: functional, organism-based; settings: not given

Row | SMILES | Activity
15 | O=C(CO[N+](=O)[O-])NCCCNc1c2c(nc3ccccc13)CCCC2 | Active
16 | O=[N+]([O-])OCCNCCNc1c2c(nc3ccccc13)CCCC2 | Active
17 | CCCNCCCCNc1c2c(nc3ccccc13)CCCC2 | inactive
18 | O=[N+]([O-])OCCCNCCCCNc1c2c(nc3ccccc13)CCCC2 | Active

organism: Rattus norvegicus; experiment: Hepatotoxicity in Wistar rat liver assessed as histopathological changes; format: toxicity, organism-based; settings: in vivo

Row | SMILES | Activity
19 | O=[N+]([O-])OCCCNCCCCNc1c2c(nc3ccccc13)CCCC2 | Non-toxic

molecular target: Butyrylcholinesterase (Equus caballus, UniProt Q9N1N9); settings: not given
Sequence (Q9N1N9 whole entry): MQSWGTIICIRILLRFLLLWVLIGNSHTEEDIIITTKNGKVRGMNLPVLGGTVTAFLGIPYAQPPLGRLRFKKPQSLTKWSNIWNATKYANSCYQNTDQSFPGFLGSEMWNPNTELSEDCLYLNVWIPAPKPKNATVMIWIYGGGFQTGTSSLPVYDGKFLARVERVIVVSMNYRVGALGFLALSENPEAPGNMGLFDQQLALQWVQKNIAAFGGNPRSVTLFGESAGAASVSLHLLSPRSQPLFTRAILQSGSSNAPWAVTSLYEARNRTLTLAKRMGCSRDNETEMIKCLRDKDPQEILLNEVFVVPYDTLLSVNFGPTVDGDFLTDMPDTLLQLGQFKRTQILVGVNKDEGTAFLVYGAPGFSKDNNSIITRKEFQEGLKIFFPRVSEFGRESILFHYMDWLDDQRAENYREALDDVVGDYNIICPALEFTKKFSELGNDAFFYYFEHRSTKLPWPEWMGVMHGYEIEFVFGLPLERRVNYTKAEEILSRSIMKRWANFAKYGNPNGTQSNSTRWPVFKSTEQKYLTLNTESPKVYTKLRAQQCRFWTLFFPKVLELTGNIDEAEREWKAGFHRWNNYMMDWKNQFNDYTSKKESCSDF

Row | SMILES | IC50 [nM]
20 | O=[N+]([O-])OCCNCCCCCCCCNc1c2c(nc3ccccc13)CCCC2 | 17
21 | O=[N+]([O-])OCCCNCCCCCCCCNc1c2c(nc3ccccc13)CCCC2 | 14.8
22 | O=[N+]([O-])OCCCNCCNc1c2c(nc3ccccc13)CCCC2 | 18.1
23 | O=C(CO[N+](=O)[O-])NCCCNc1c2c(nc3ccccc13)CCCC2 | 13.5
24 | O=[N+]([O-])OCCNCCCCCNc1c2c(nc3ccccc13)CCCC2 | 13.3
25 | O=[N+]([O-])OCCNCCNc1c2c(nc3ccccc13)CCCC2 | 7.3
26 | O=[N+]([O-])OCCCNCCCCCNc1c2c(nc3ccccc13)CCCC2 | 14.3
27 | CCCNCCCCNc1c2c(nc3ccccc13)CCCC2 | 7.2
28 | O=[N+]([O-])OCCCCCCNCCCCCCCCNc1c2c(nc3ccccc13)CCCC2 | 12.9
29 | O=[N+]([O-])OCCCNCCCCNc1c2c(nc3ccccc13)CCCC2 | 9.9
